The text below walks through data of patent US20240116988A1, “ANTI-ROR1 MACROCYCLIC PEPTIDES AND COMPOSITIONS” (BRISTOL-MYERS SQUIBB COMPANY, priority 2022, published 2024).

The assay has as its target T1, human ROR1 (Homo sapiens, UniProt Q01973).
T1 construct: host or cells: HEK 293T cells, Tet-on system induced with doxycycline
Put plainly: ROR1 high content cell-based binding assay. The conditions noted are these: read-out: ROR1 Binding 293T Human HC Cell Based Assay IC50. Here is the method: ROR1 high content cell-based binding assay: Human embryonic kidney 293T cells (293T) expressing human ROR1 with Tet-on system by doxycycline were used (Arctic-488134) for the assessment of inhibition of the binding of fluorescently-labeled competing peptide (“Probe”) that specifically binds to human ROR1. […] Cryopreserved vials were thawed in a 37° C. water bath. Cells were washed in assay culture media [DMEM (Life Technologies Inc. Cat. […] Cat. No. 15140-122) and […] dox] and diluted 1.0×10^5 cells/mL. Cells were seeded into PDL-coated 384 well plates (BD Falcon Cat. No. 356663) at 2,000 cells/20 μL. Plates were allowed to incubate for 10 minutes at room temperature and then transferred to a 37° C./5% CO2 incubator for overnight incubation. The next day, 125 nL of the test compound was added using an ECHO followed by the addition of 5 μL/well of 5-FAM-labeled probe to cells at a final concentration of 30 nM. Sample were incubated for 1 hour at 37° C. for 1 hour, followed by 3 washes in […] of dPBS. Cells were fixed by adding 8% (w/v) formaldehyde (Sigma Cat. No. 252549), 20 μg/mL Hoechst (Thermo Scientific Cat. No. 62249) in PBS for 20 minutes at room temperature. The plates were washed 3 more times in dPBS and 15 μl of PBS was left in the wells following the last wash. The plates were sealed, and data was using obtained using a CellInsight NXT High Content Screening Platform IC903000 (Thermo Scientific).

Where two headings read alike, the source gives them in different places. Positions of bridges follow the written chain, without caps; N, C: chain ends. Non-standard residues stand in square brackets, D forms with d. Residues, ends and D or L forms follow the SMILES beside them. NMeF = CN[C@@H](Cc1ccccc1)C(=O)O

T1 sequence (Q01973 30-937): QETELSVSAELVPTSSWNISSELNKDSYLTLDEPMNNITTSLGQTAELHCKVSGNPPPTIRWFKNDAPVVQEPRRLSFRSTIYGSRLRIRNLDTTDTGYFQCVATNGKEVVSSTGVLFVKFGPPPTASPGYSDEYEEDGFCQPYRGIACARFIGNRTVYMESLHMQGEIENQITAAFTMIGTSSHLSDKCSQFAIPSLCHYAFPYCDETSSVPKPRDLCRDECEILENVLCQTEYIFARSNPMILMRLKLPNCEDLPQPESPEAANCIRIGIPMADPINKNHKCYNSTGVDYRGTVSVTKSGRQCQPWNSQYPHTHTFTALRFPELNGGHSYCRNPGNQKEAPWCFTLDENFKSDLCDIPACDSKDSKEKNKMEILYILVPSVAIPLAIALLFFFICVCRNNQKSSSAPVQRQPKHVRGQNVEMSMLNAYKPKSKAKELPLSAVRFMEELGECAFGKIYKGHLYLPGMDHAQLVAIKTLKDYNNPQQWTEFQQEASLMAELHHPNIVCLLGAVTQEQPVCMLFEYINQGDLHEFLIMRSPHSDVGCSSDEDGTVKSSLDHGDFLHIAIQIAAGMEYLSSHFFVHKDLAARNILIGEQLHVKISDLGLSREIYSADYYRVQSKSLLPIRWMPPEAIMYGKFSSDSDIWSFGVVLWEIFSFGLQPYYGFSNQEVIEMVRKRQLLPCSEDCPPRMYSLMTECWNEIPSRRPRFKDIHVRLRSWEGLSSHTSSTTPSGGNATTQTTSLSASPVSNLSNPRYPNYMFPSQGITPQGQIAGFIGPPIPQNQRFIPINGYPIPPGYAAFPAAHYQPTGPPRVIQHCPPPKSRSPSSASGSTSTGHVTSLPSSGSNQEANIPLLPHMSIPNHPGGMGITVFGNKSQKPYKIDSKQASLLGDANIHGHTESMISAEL

Turning to `CC(C)C[C@@H]1NC(=O)[C@H](Cc2ccc(O)cc2)NC(=O)[C@H](Cc2ccccc2)NC(=O)CSC[C@@H](C(=O)NCC(N)=O)NC(=O)[C@H](CC(C)C)NC(=O)[C@H](Cc2ccccc2)N(C)C(=O)[C@H](Cc2ccc(O)cc2)NC(=O)[C@H](Cc2c[nH]c3ccccc23)NC(=O)CNC(=O)[C@H](CCC(N)=O)NC(=O)[C@H](Cc2ccc(O)cc2)NC(=O)[C@H](C(C)C)NC1=O` [Example 1016] ({CH2CO}-FYLVYQGWY[NMeF]LCG-NH2; thioether N-12), the IC50 (usually the midpoint of a concentration-inhibition curve) came to 7 nM. Same read-out and setting: the result for `CC(C)C[C@@H]1NC(=O)[C@H](Cc2ccc(O)cc2)NC(=O)[C@H](Cc2ccccc2)NC(=O)CSC[C@@H](C(=O)NCC(N)=O)NC(=O)[C@H](CC(C)C)NC(=O)[C@H](Cc2ccccc2)N(C)C(=O)[C@H](Cc2ccc(O)cc2)NC(=O)[C@H](Cc2c[nH]c3ccccc23)NC(=O)CNC(=O)[C@H](CC(=O)O)NC(=O)[C@H](Cc2ccc(O)cc2)NC(=O)[C@H](C(C)C)NC1=O` [Example 1017] ({CH2CO}-FYLVYDGWY[NMeF]LCG-NH2; thioether N-12) reads 14 nM; that for `CC(C)C[C@@H]1NC(=O)[C@H](Cc2ccc(O)cc2)NC(=O)[C@H](Cc2ccccc2)NC(=O)CSC[C@@H](C(=O)NCC(N)=O)NC(=O)[C@H](CC(C)C)NC(=O)[C@H](Cc2ccccc2)N(C)C(=O)[C@H](Cc2ccc(O)cc2)NC(=O)[C@H](Cc2c[nH]c3ccccc23)NC(=O)CNC(=O)[C@H](CCCNC(=N)N)NC(=O)[C@H](Cc2ccc(O)cc2)NC(=O)[C@H](C(C)C)NC1=O` [Example 1018] ({CH2CO}-FYLVYRGWY[NMeF]LCG-NH2; thioether N-12), 30 nM; that for `CC(C)C[C@@H]1NC(=O)[C@H](Cc2ccc(O)cc2)NC(=O)[C@H](Cc2ccccc2)NC(=O)CSC[C@@H](C(=O)NCC(N)=O)NC(=O)[C@H](CC(C)C)NC(=O)[C@H](Cc2ccccc2)N(C)C(=O)[C@H](Cc2ccc(O)cc2)NC(=O)[C@H](Cc2c[nH]c3ccccc23)NC(=O)CNC(=O)[C@H](CCCCN)NC(=O)[C@H](Cc2ccc(O)cc2)NC(=O)[C@H](C(C)C)NC1=O` [Example 1019] ({CH2CO}-FYLVYKGWY[NMeF]LCG-NH2; thioether N-12), 27 nM. Still for that read-out and setting: then `CC(C)C[C@@H]1NC(=O)[C@H](Cc2ccc(O)cc2)NC(=O)[C@H](Cc2ccccc2)NC(=O)CSC[C@@H](C(=O)NCC(N)=O)NC(=O)[C@H](CC(C)C)NC(=O)[C@H](Cc2ccccc2)N(C)C(=O)[C@H](Cc2ccc(O)cc2)NC(=O)[C@H](Cc2c[nH]c3ccccc23)NC(=O)CNC(=O)[C@H](C)NC(=O)[C@H](Cc2ccc(O)cc2)NC(=O)[C@H](C(C)C)NC1=O` [Example 1020] ({CH2CO}-FYLVYAGWY[NMeF]LCG-NH2; thioether N-12), with 18 nM; and `CC(C)C[C@@H]1NC(=O)[C@H](Cc2ccc(O)cc2)NC(=O)[C@H](Cc2ccccc2)NC(=O)CSC[C@@H](C(=O)NCC(N)=O)NC(=O)[C@H](CC(C)C)NC(=O)[C@H](Cc2ccccc2)N(C)C(=O)[C@H](Cc2ccc(O)cc2)NC(=O)[C@H](Cc2c[nH]c3ccccc23)NC(=O)CNC(=O)[C@H](CC(N)=O)NC(=O)[C@H](Cc2ccc(O)cc2)NC(=O)[C@H](C(C)C)NC1=O` [Example 1021] ({CH2CO}-FYLVYNGWY[NMeF]LCG-NH2; thioether N-12), with 5 nM. On the same count and under the same terms, then `CC(C)C[C@@H]1NC(=O)[C@H](Cc2ccc(O)cc2)NC(=O)[C@H](Cc2ccccc2)NC(=O)CSC[C@@H](C(=O)NCC(N)=O)NC(=O)[C@H](CC(C)C)NC(=O)[C@H](Cc2ccccc2)N(C)C(=O)[C@H](Cc2ccc(O)cc2)NC(=O)[C@H](Cc2c[nH]c3ccccc23)NC(=O)CNC(=O)CNC(=O)[C@H](Cc2ccc(O)cc2)NC(=O)[C@H](C(C)C)NC1=O` [Example 1022] ({CH2CO}-FYLVYGGWY[NMeF]LCG-NH2; thioether N-12), with 34 nM; and `CC(C)C[C@@H]1NC(=O)[C@H](Cc2ccc(O)cc2)NC(=O)[C@H](Cc2ccccc2)NC(=O)CSC[C@@H](C(=O)NCC(N)=O)NC(=O)[C@H](CC(C)C)NC(=O)[C@H](Cc2ccccc2)N(C)C(=O)[C@H](Cc2ccc(O)cc2)NC(=O)[C@H](Cc2c[nH]c3ccccc23)NC(=O)CNC(=O)[C@H](CO)NC(=O)[C@H](CCCNC(=N)N)NC(=O)[C@H](C(C)C)NC1=O` [Example 1023] ({CH2CO}-FYLVRSGWY[NMeF]LCG-NH2; thioether N-12), with 79 nM; and `CC(C)C[C@@H]1NC(=O)[C@H](Cc2ccc(O)cc2)NC(=O)[C@H](Cc2ccccc2)NC(=O)CSC[C@@H](C(=O)NCC(N)=O)NC(=O)[C@H](CC(C)C)NC(=O)[C@H](Cc2ccccc2)N(C)C(=O)[C@H](Cc2ccc(O)cc2)NC(=O)[C@H](Cc2c[nH]c3ccccc23)NC(=O)CNC(=O)[C@H](CO)NC(=O)[C@H](CC(N)=O)NC(=O)[C@H](C(C)C)NC1=O` [Example 1024] ({CH2CO}-FYLVNSGWY[NMeF]LCG-NH2; thioether N-12), with 620 nM. Turning to `CC(C)C[C@@H]1NC(=O)[C@H](Cc2ccc(O)cc2)NC(=O)[C@H](Cc2ccccc2)NC(=O)CSC[C@@H](C(=O)NCC(N)=O)NC(=O)[C@H](CC(C)C)NC(=O)[C@H](Cc2ccccc2)N(C)C(=O)[C@H](Cc2ccc(O)cc2)NC(=O)[C@H](Cc2c[nH]c3ccccc23)NC(=O)CNC(=O)[C@H](CO)NC(=O)CNC(=O)[C@H](C(C)C)NC1=O` [Example 1025] ({CH2CO}-FYLVGSGWY[NMeF]LCG-NH2; thioether N-12), the IC50 turned out to be 365 nM. Consider `CC(C)C[C@@H]1NC(=O)[C@H](Cc2ccc(O)cc2)NC(=O)[C@H](Cc2ccccc2)NC(=O)CSC[C@@H](C(=O)NCC(N)=O)NC(=O)[C@H](CC(C)C)NC(=O)[C@H](Cc2ccccc2)N(C)C(=O)[C@H](Cc2ccc(O)cc2)NC(=O)[C@H](Cc2c[nH]c3ccccc23)NC(=O)CNC(=O)[C@H](CO)NC(=O)[C@H](CO)NC(=O)[C@H](C(C)C)NC1=O` [Example 1026] ({CH2CO}-FYLVSSGWY[NMeF]LCG-NH2; thioether N-12), for which the IC50 stood at 59 nM. Same read-out and setting: then `CC(C)C[C@@H]1NC(=O)[C@H](Cc2ccc(O)cc2)NC(=O)[C@H](Cc2ccccc2)NC(=O)CSC[C@@H](C(=O)NCC(N)=O)NC(=O)[C@H](CC(C)C)NC(=O)[C@H](Cc2ccccc2)N(C)C(=O)[C@H](Cc2ccc(O)cc2)NC(=O)[C@H](Cc2c[nH]c3ccccc23)NC(=O)CNC(=O)[C@H](CO)NC(=O)[C@H](C)NC(=O)[C@H](C(C)C)NC1=O` [Example 1027] ({CH2CO}-FYLVASGWY[NMeF]LCG-NH2; thioether N-12), with 870 nM.

Regarding `CC(C)C[C@@H]1NC(=O)[C@H](Cc2ccc(O)cc2)NC(=O)[C@H](Cc2ccccc2)NC(=O)CSC[C@@H](C(=O)NCC(N)=O)NC(=O)[C@H](CC(C)C)NC(=O)[C@H](Cc2ccccc2)N(C)C(=O)[C@H](Cc2ccc(O)cc2)NC(=O)[C@H](Cc2c[nH]c3ccccc23)NC(=O)CNC(=O)[C@H](CCC(=O)O)NC(=O)[C@H](Cc2ccc(O)cc2)NC(=O)[C@H](C(C)C)NC1=O` [Example 1028] ({CH2CO}-FYLVYEGWY[NMeF]LCG-NH2; thioether N-12), where the note is “293T cells expressing human ROR1 (Tet-on, doxycycline), inhibition of binding of 5-FAM-labeled probe (Example 1300) at 30 nM, 1 hour at 37° C.”, the IC50 came out at 10 nM. `CC(C)C[C@@H]1NC(=O)[C@H](Cc2ccc(O)cc2)NC(=O)[C@H](Cc2ccccc2)NC(=O)CSC[C@@H](C(=O)NCC(N)=O)NC(=O)[C@H](CC(C)C)NC(=O)[C@H](Cc2ccccc2)N(C)C(=O)[C@H](Cc2ccc(O)cc2)NC(=O)[C@H](Cc2c[nH]c3ccccc23)NC(=O)CNC(=O)[C@H](CO)NC(=O)[C@H](CCCCN)NC(=O)[C@H](C(C)C)NC1=O` [Example 1029] ({CH2CO}-FYLVKSGWY[NMeF]LCG-NH2; thioether N-12): the IC50 is 255 nM. Still for that read-out and setting: then `CC(C)C[C@@H]1NC(=O)[C@H](Cc2ccc(O)cc2)NC(=O)[C@H](Cc2ccccc2)NC(=O)CSC[C@@H](C(=O)NCC(N)=O)NC(=O)[C@H](CC(C)C)NC(=O)[C@H](Cc2ccccc2)N(C)C(=O)[C@H](Cc2ccc(O)cc2)NC(=O)[C@H](Cc2c[nH]c3ccccc23)NC(=O)CNC(=O)[C@H](CO)NC(=O)[C@H](Cc2cnc[nH]2)NC(=O)[C@H](C(C)C)NC1=O` [Example 1030] ({CH2CO}-FYLVHSGWY[NMeF]LCG-NH2; thioether N-12), with 275 nM; and `CC(C)C[C@@H]1NC(=O)[C@H](Cc2ccc(O)cc2)NC(=O)[C@H](Cc2ccccc2)NC(=O)CSC[C@@H](C(=O)NCC(N)=O)NC(=O)[C@H](CC(C)C)NC(=O)[C@H](Cc2ccccc2)N(C)C(=O)[C@H](Cc2ccc(O)cc2)NC(=O)[C@H](Cc2c[nH]c3ccccc23)NC(=O)CNC(=O)[C@H](CO)NC(=O)[C@H](CCC(N)=O)NC(=O)[C@H](C(C)C)NC1=O` [Example 1031] ({CH2CO}-FYLVQSGWY[NMeF]LCG-NH2; thioether N-12), with 214 nM. Still for that read-out and setting: then `CC(C)C[C@@H]1NC(=O)[C@H](Cc2ccc(O)cc2)NC(=O)[C@H](Cc2ccccc2)NC(=O)CSC[C@@H](C(=O)NCC(N)=O)NC(=O)[C@H](CC(C)C)NC(=O)[C@H](Cc2ccccc2)N(C)C(=O)[C@H](Cc2ccc(O)cc2)NC(=O)[C@H](Cc2c[nH]c3ccccc23)NC(=O)CNC(=O)CNC(=O)[C@H](CCCNC(=N)N)NC(=O)[C@H](C(C)C)NC1=O` [Example 1032] ({CH2CO}-FYLVRGGWY[NMeF]LCG-NH2; thioether N-12), with 392 nM.
